Experimental data published in patent US11992530B2 (priority 2018, dated 2024).
Values joined by “and” are separate entries in the source; they are usually repeats but may differ in a detail not shown here. Equal entries are not always repeated. Where two headings read alike, the source gives them in different places.

What was measured:
[1] = Dynamic vapor sorption (DVS) isotherm; conditions: for DVS weight loss upon desorption: hysteresis observed
[2] = for Cisplatin Concentration: 24° C.
Experimental: In one aspect, a mixed mode C-18 chromatography column is used in the assay, which has both hydrophobic interaction and ion exchange capabilities. In another aspect, the HPLC run time for the assay is about 2 min, about 5 min, about 7.5 min, about 10 min or about 15 min. In one aspect, the HPLC run time is about 5 min or about 10 min.
In another aspect, the concentration is analyzed using HPLC with a mixed mode C-18 chromatography column at a column temperature of 35° C., flow rate of 400 μL/min, and UV detection at 220 nm. In one aspect, the HPLC method comprises a step gradient of 100% Buffer A (0.5 mM ammonium formate in 9:1 water:acetonitrile, pH 4) for 3 min; then 90% Buffer A and 10% Buffer B (200 mM ammonium formate in 7:3 water:acetonitrile, pH 4) for 3.5 min; then 100% Buffer A for 4.5 min.
The method uses a Waters Acquity H-Class HPLC system with an Imtakt Scherzo SW-C18 mixed mode column. The HPLC method conditions are outlined in Table 7. […] This range covers greater than two orders of magnitude at dose-relevant concentrations.
Each sample was transferred to an HPLC vial and placed in an autosampler chamber held at 24° C. Samples were injected onto the HPLC system approximately every 30 minutes to obtain 4 time-points for each sample. A gradient was run and the retention time and peak area were obtained.

[3] = test system: cisplatin-induced ototoxicity
Text: Reference is made to International Patent Application Publication No. WO 2019/108592, which is a continuation of U.S. patent application Ser. No. 15/826,243, filed on Nov. 29, 2017, both of which are incorporated by reference herein in their entirety.

[4] = Clinical pharmacokinetics (plasma levels, distribution, excretion)
Text: The compound is available as anhydrous and crystalline forms; the pentahydrate crystalline form is the most common hydrate form. […] Proposed mechanisms of action involve its […], which allow it to act as a free radical scavenger and/or by covalent binding and inactivating the platinum compound.
(§1) Thiosulfate is an endogenous compound ubiquitously present in all cells and organs.

[5] = animals
Text: as §1

human plasma proteins = test system: human plasma proteins
Text: as §1

[6] = cited from earlier work
[7] = test system: small cell lung cancer cell cultures; conditions: cited from earlier work
[8] = thiosulfate:cisplatin 5:1 (n = 2)
[9] = thiosulfate:cisplatin 6:1 (n = 2)
[10] = thiosulfate:cisplatin 10:1 (n = 2)
[11] = preliminary clinical studies, dose equivalent to 5.1 g/m^2 sodium thiosulfate for injection

O.O.O.O.O.O=S([O-])([O-])=S.[Na+].[Na+] [sodium thiosulfate pentahydrate]
DVS weight gain upon sorption [1]: 81%
DVS weight loss upon drying [1]: 27%
DVS weight loss upon desorption [1]: 51%

O=S([O-])([O-])=S.[Na+].[Na+] [STS, sodium thiosulfate]
Half-life of cisplatin (time to reach 333/2 μM) [2, 8]: 3.3 h
Slope, linear regression of cisplatin conc. vs. time [2, 8]: −0.80 Cisplatin Area/min
Cisplatin Concentration ([2]; thiosulfate:cisplatin 5:1, 4 min): 323.7 µM
Cisplatin Concentration ([2]; thiosulfate:cisplatin 5:1, 37 min): 294.2 µM and 294.0 µM
Cisplatin Concentration ([2]; thiosulfate:cisplatin 5:1, 70 min): 266.8 µM and 268.0 µM
Cisplatin Concentration ([2]; thiosulfate:cisplatin 5:1, 103 min): 243.7 µM and 245.3 µM
Half-life of cisplatin (time to reach 333/2 μM) [2, 9]: 3.07 h
Slope, linear regression of cisplatin conc. vs. time [2, 9]: −0.87 Cisplatin Area/min
Cisplatin Concentration ([2]; thiosulfate:cisplatin 6:1, 5 min): 325.4 µM and 324.5 µM
Cisplatin Concentration ([2]; thiosulfate:cisplatin 6:1, 38 min): 286.4 µM and 293.2 µM
Cisplatin Concentration ([2]; thiosulfate:cisplatin 6:1, 71 min): 259.8 µM and 266.2 µM
Cisplatin Concentration ([2]; thiosulfate:cisplatin 6:1, 104 min): 235.6 µM and 240.5 µM
Half-life of cisplatin (time to reach 333/2 μM) [2, 10]: 2.27 h
Slope, linear regression of cisplatin conc. vs. time [2, 10]: −1.13 Cisplatin Area/min
Cisplatin Concentration ([2]; thiosulfate:cisplatin 10:1, 4 min): 319.5 µM
Cisplatin Concentration ([2]; thiosulfate:cisplatin 10:1, 5 min): 320.3 µM
Cisplatin Concentration ([2]; thiosulfate:cisplatin 10:1, 37 min): 269.4 µM
Cisplatin Concentration ([2]; thiosulfate:cisplatin 10:1, 38 min): 278.5 µM
Cisplatin Concentration ([2]; thiosulfate:cisplatin 10:1, 70 min): 235.2 µM
Cisplatin Concentration ([2]; thiosulfate:cisplatin 10:1, 71 min): 239.6 µM
Cisplatin Concentration ([2]; thiosulfate:cisplatin 10:1, 103 min): 205.6 µM
Cisplatin Concentration ([2]; thiosulfate:cisplatin 10:1, 104 min): 209.3 µM
Prevention of ototoxicity ([3]; doses equivalent to 6.4 to 12.8 g/m^2 sodium thiosulfate for injection): prevented ototoxicity
Ototoxicity in pediatric patients treated with platinum based chemotherapeutics ([3]; pediatric patients): reduces ototoxicity
Hearing protection [3, 11]: did not show hearing protection
Survival ([3]; treatment 6 hours after completion of each CIS infusion): did not affect survival
Efficacy of cisplatin based chemotherapeutics when STS was administered ([3]; two phase III clinical trials, pediatric patients): not affected
Plasma accumulation ([4]; administered on 2 consecutive days): no plasma accumulation
Volume of distribution ([4]; adults): 0.23 L/kg
Maximum STS plasma levels ([4]; children and adults, 15-minute infusion, dose equivalent to 12.8 g/m^2 sodium thiosulfate for injection): approximately 13.3 mM
Distribution across the blood brain barrier or placenta ([4]; human, in vivo): absent or limited
Absorption after oral administration ([4]; oral): poorly absorbed
Maximum plasma levels [4, 11]: 3.9 mM
Distribution to the cochlea [5]: distribute to the cochlea
Binding to human plasma proteins (human plasma proteins): does not bind
Serum sodium levels (doses equivalent to 12.8 g/m^2 sodium thiosulfate for injection): small, transient increase
Renal or other toxicities (pediatric patients treated with a platinum based chemotherapeutic): not exacerbate renal or other toxicities
Excreted in the urine unmodified ([6]; following IV administration): Up to 95%
Biological half-life ([6]; human, in vivo): 0.65 hours
Biological half-life, range dependent on dose ([6]; human, in vivo): 16.5-182 minutes
Cytotoxicity of etoposide after immediate or delayed addition of STS ([7]; incubation for 72 hours): no reduction of cytotoxicity
Anti-tumor activity of doxorubicin, carmustine (BCNU), paclitaxel, or methotrexate with STS ([7]; similar studies): no reduction of anti-tumor activity

O=S(O)(O)=S [thiosulfate]
Endogenous serum thiosulfate levels ([4]; adult volunteers): 5.5 ± 1.8 µM

O=S([O-])([O-])=S.[Na+].[Na+] [anhydrous sodium thiosulfate, Sodium thiosulfate anhydrous]
DVS weight change upon equilibration to 0% relative humidity [1]: minimal weight change
DVS weight loss upon desorption [1]: 51%
